Measured values as given in PMC5860131, “Identification of natural products as novel ligands for the human 5-HT2C receptor” (Biophysics Reports, 2018).

Columns and labels:
Format in all cases: binding
5-HT2C receptor [1] = target: T1, 5-HT2C receptor (Homo sapiens, UniProt P28335, DEL255-298/G251D/H250E/H252N/INS299[…]/L248D/M247A/M300L/T253W)
T1 construct: the N- and C-terminals were truncated by 39 and 65 residues, respectively; FLAG (N); PreScission protease site + 10× His (C); made in house; host or cells: Spodoptera frugiperda (Sf9), baculovirus

[2] = target: T2, 5-HT2C receptor G218^5.42A (Homo sapiens, UniProt P28335, DEL255-298/G218A/G251D/H250E/H252N/INS299[…]/L248D/M247A/M300L/T253W); assay: CPM thermal stability assay, 5-HT2C mutant G218A
T2 construct: the N- and C-terminals were truncated by 39 and 65 residues, respectively; PreScission protease site + 10× His (C); made in house
Description: (§1) Based on the binding poses predicted by molecular docking, single-point mutations were designed to test their impact on ligand binding. Mutations of several residues include the highly conserved Asp134^3.32, which is known to cause 5-HT1B or 5-HT2B receptors to abolish the monoamine ligand binding as reported in the literature (Wang et al. [2013]). In this study, residues forming hydrophobic interactions with the substitution groups on the aporphine scaffold of (–)-crebanine (1) were selected for mutation as well and they are Thr139^3.37, Gly218^5.42, Ala222^5.46, and Leu209^ECL2. Effects of those mutations were tested with the CPM assay and the affinity MS assay (Table 2). In the affinity MS experiment, relative ligand-binding capacity (represented by binding %) to different mutants and the wild-type receptor was compared. […]
(§2) Purified 5-HT2C receptor protein was thoroughly mixed with CPM fluorescent dyes. […] Fluorescence signals, wavelength 387 nm (excitation) and 463 nm (emission), were monitored (Alexandrov et al. [2008]). […] The thermal denaturation of the samples was evaluated using the scatter plot curve, where the horizontal coordinates represented temperature and the vertical coordinates indicated normalized fluorescence intensity recorded for a particular temperature. […]

5-HT2C receptor [3] = target: T1, 5-HT2C receptor; remark: listed apart in the source
[4] = target: T3, 5-HT2C receptor T139^3.37A (Homo sapiens, UniProt P28335, DEL255-298/G251D/H250E/H252N/INS299[…]/L248D/M247A/M300L/T139A/T253W); assay: CPM thermal stability assay, 5-HT2C mutant T139A; details: mutant T139^3.37A, n = 2
T3 construct: the N- and C-terminals were truncated by 39 and 65 residues, respectively; PreScission protease site + 10× His (C); made in house
Description: as §1, §2

[5] = target: T4, 5-HT2C receptor A222^5.46V (Homo sapiens, UniProt P28335, A222V/DEL255-298/G251D/H250E/H252N/INS299[…]/L248D/M247A/M300L/T253W); assay: Affinity MS assay, 5-HT2C mutant A222V; details: mutant A222^5.46V, n = 2
T4 construct: the N- and C-terminals were truncated by 39 and 65 residues, respectively; PreScission protease site + 10× His (C); made in house
Description: as §1, with “compared. Among the six mutations tested, five of them reduced the binding of (–)-crebanine (1) by more than 40% relative to binding to the wild-type receptor, displaying the importance of hydrophobic interactions.” for “compared.”
(§3) Four experimental replicates were prepared for each pair of the test ligand and the negative control. […] S/C ratios refer to the ratio of MS response of a specific ligand detected in the 5-HT2C incubation sample versus the control. […]

[6] = target: T5, 5-HT2C receptor L209^ECL2F (Homo sapiens, UniProt P28335, DEL255-298/G251D/H250E/H252N/INS299[…]/L209F/L248D/M247A/M300L/T253W); assay: Affinity MS assay, 5-HT2C mutant L209F; details: n = 2
T5 construct: the N- and C-terminals were truncated by 39 and 65 residues, respectively; PreScission protease site + 10× His (C); made in house
Description: as §1, with “compared. Among the six mutations tested, five of them reduced the binding of (–)-crebanine (1) by more than 40% relative to binding to the wild-type receptor, displaying the importance of hydrophobic interactions.” for “compared.”
as §3

T1 sequence (P28335 with tags, fused parts or gaps with the stated changes limits assumed): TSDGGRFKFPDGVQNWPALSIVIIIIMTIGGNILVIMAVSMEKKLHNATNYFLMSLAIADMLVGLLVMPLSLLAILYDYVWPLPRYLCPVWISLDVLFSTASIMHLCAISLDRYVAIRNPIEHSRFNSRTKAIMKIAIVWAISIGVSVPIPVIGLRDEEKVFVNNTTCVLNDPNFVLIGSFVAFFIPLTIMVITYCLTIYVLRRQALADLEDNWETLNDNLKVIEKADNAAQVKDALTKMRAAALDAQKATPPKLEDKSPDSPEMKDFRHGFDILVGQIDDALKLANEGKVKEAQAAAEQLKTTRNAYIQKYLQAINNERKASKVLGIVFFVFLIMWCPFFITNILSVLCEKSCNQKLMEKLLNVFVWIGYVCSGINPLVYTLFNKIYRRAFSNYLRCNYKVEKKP
T2 sequence (P28335 with tags, fused parts or gaps with the stated changes): as the sequence (P28335 with tags, fused parts or gaps with the stated changes limits assumed) above, with G179A counted along it
T3 sequence (P28335 with tags, fused parts or gaps with the stated changes): as the sequence (P28335 with tags, fused parts or gaps with the stated changes limits assumed) above, with T100A counted along it
T4 sequence (P28335 with tags, fused parts or gaps with the stated changes): as the sequence (P28335 with tags, fused parts or gaps with the stated changes limits assumed) above, with A183V counted along it
T5 sequence (P28335 with tags, fused parts or gaps with the stated changes): as the sequence (P28335 with tags, fused parts or gaps with the stated changes limits assumed) above, with L170F counted along it

## COc1ccc2c(c1OC)C[C@@H]1c3c(cc4c(c3-2)OCO4)CCN1C [Compound 1, (–)-crebanine]
5-HT2C receptor [1]; WT receptor, n = 2, MS response of released ligand divided by total ligand in incubation sample
  (–)-Crebanine/MS relative ligand binding: 27.57%
5-HT2C receptor [1]; ratio of MS response in 5-HT2C incubation sample versus control (hydroxycarboxylic acid receptor 2), 500 nmol/L protein, 250 nmol/L ligand, n = 4
  S/C: 9.15 ± 1.43
[2]; mutant G218^5.42A, n = 2
  (–)-Crebanine/CPM (Tm): 53.92 °C
[2]; mutation Gly218^5.42Ala
  Tm value decrease versus wild-type: over 6.0 °C
5-HT2C receptor [3]; CPM assay, comparing to apo-protein
  thermal shift value (∆Tm): 9.25 °C
5-HT2C receptor [3]; WT receptor, n = 2
  (–)-Crebanine/CPM (Tm): 59.93 °C
[4]
  (–)-Crebanine/CPM (Tm): 54.63 °C
[5]
  (–)-Crebanine/MS relative ligand binding: 25.84%
[6]
  (–)-Crebanine/MS relative ligand binding: 13.22%
